Measured values published in patent US9403815B2, “Compounds and uses thereof in modulating levels of various amyloid beta peptide alloforms” (The Regents of the University of California, priority 2010, dated 2016).
Values after ≈ are worked out from the molar mass of the structure shown. Like-named read-outs stand apart in the source and are kept apart here.

What was measured:
Aβtotal = assay: Sandwich ELISA for total Aβ peptides secreted by SH-SY5Y-APP cells; assay type: cell-based, human
Protocol: (§1) The SH-SY5Y-APP human cell line was derived by transfecting a human neuroblastoma (SH-SY5Y) cell line with a plasmid expressing wild type human APP751 cDNA and selecting for stable expression of human APP and human Aβ. In each case, the levels of Aβ42 or Aβtotal or Aβ38 peptides secreted into the media of these cells were measured using either two-site monoclonal antibody (mAb)-based sandwich ELISA assays (described below for Aβ42 and Aβtotal) or in the case of Aβ38 EC50's, using either the Meso Scale Aβ38, 40, 42 triplex kit along with the Meso Scale Sector Imager 6000 according to the manufacturer's protocols. This SH-SY5Y-APP human cell line was used for all cell-based Aβ peptide immunochemical assays.
(§2) SH-SY5Y-APP cells were plated at 75,000 cells/well in 96-well tissue culture plates. After 16-18 h, the culture medium was replaced with fresh medium containing either compound or vehicle. Replicates of 3 wells per test concentration were used, with 10 concentrations at ½ log step intervals. Vehicle (0.12% DMSO) is included as a control.
The Sandwich ELISA ASSAY for Measuring Inhibition of Total Aβ Peptides and Determination of Aβtotal Peptides IC50 Inhibition Values
Anti-Aβ1-12 monoclonal antibody was diluted 1/100 in 1×TBS. Vortex. 100 μl was pipetted into each well of a microplate. The coating monoclonal antibody covered the entire bottom of each well. Each microplate was covered with a plate sealer and placed in the refrigerator overnight.
Microplates were removed from the refrigerator and each well was rinsed with 200 μl TBS. The wells were blocked by pipetting 200 μl 1% BSA/TBS per well of each microplate. The microplates were incubated at room temperature for 60 minutes.
50 μl of sample was pipetted at the appropriate dilution into designated wells of the microplates. The microplates were incubated at room temperature for 2 hrs.
The biotinylated monoclonal antibody (anti-human Amyloid Beta Protein, Clone 4G8) was diluted 1/5000 in 1% BSA/TBS/0.1% Tween-20. After vortexing, 50 μl was pipetted into each well of each microplate. The microplates were incubated at room temperature on a laboratory bench top for 1 hour.
Alkaline Phosphatase Conjugated Streptavidin was diluted 1/10,000 in 1% BSA/TBS/0.1% Tween-20. Vortex. 50 μl was pipetted into each well of microplate. The microplates were incubated at room temperature on bench top for 1 h.
After finishing washing the microplates (≦5 microplates per assay), 50 μl of CSPD-Sapphire luminescence substrate (brought room temperature prior to use) was added to each well and the wells were incubated for 15 minutes at room temperature in the dark. The timer was started after finishing of the adding of the substrate solution to the first plate of the group of microplates. […]
Plates were read in a Glow Runner luminometer. […]

Aβ42 = assay: Sandwich ELISA for inhibition of Aβ42 secreted by SH-SY5Y-APP cells; assay type: cell-based; conditions: Homo sapiens
Protocol: as §1, §2
The Sandwich ELISA Assay for Measuring Inhibition of Aβ42 and Determination of Aβ42 IC50 Inhibition Values
An Anti-Aβ35-42 coating monoclonal antibody which is specific for the Aβ42 peptide, stored in 60 μl aliquots at −80° C. (thaw once and discard after use).
An Anti-Aβ1-12 alkaline phosphatase-conjugated monoclonal antibody, stored at 4° C.
Anti-Aβ35-42 monoclonal antibody was diluted 1/300 in 1×TBS. After vortexing, pipette 100 μl of antibody into each well of microplate. The antibody covered the entire bottom of each well. Each microplate was covered with a plate sealer and placed at 4° C. for 19 h.
Microplates were removed from the cold room, the coating monoclonal antibody were aspirated off from all wells. Each well was rinsed once with 200 μl TBS^2. The wells were blocked by pipetting 200 μl of 1% BSA/TBS blocking solution per well and the plates incubated at room temperature for 60 minutes on a laboratory benchtop.
Sample addition to plates: Directly following the 60 min block step, blocking buffer was aspirated off and 50 μl of sample was pipetted to each well and then standard curve samples (50 μl) were added in duplicate to top 2 rows.
The plates were incubated at room temperature for 2 h.
Anti-Aβ1-12 mAb-alkaline phosphatase conjugate was diluted 1/10,000 in 1% BSA/TBS/0.1% Tween-20 and vortexed. 50 μl was pipetted into each well of the microplate.
To all plates, 50 μl of CDP-Star (Sapphire) luminescence substrate (brought to room temperature prior to use) was added to each well and incubated for 15 min at room temperature in the dark. The timer was started after finishing adding the substrate to the first plate of the group. This step was done with a group of 5 plates or less.
Each microplate was read in a Glow Runner luminometer^3.
Data Analysis (Apply to Both Aβ42 and Aβtotal Sandwich ELISA Assays):
A. Calculations • 1. Average the sample values and calculate the SD (standard deviation) and % CV (all datapoints must be <30%). If not, determine if one well is an outlier by using the Grubbs test (Graphpad website). • 2. Convert sample values to pg/well using the linear fit of the standard curve. Footnotes (Apply to Both Aβ42 and Aβtotal Sandwich ELISA Assays)

Aβ38 = assay: Meso Scale Aβ38, 40, 42 triplex assay for potentiation of Aβ38 in SH-SY5Y-APP cells; assay type: cell-based; conditions: Homo sapiens, Meso Scale triplex kit
Protocol: as §1, §2

[1] = Solubility at pH 6.6 and pH 7.4; assay type: physicochemical
NOTCH = assay: Western blot of NOTCH proteolysis (NICD production) in H4-APP751 cells transfected with NδED; assay type: cell-based, human; conditions: 500 nM, 24 hrs
Protocol: Stable H4 human neuroglioma cells over-expressing human APP751 (H4-APP751 cells), were transfected with the NδED construct (Lanes 1-6), and then treated with vehicle (DMSO; Lanes 1-2 Control), 500 nM GSM41 (test compound), or 500 nM DAPT (Lanes 5-6 inhibitor of gamma secretase) for another 24 hrs. Additionally H4-APP751 cells were transfected with the NICD construct (as a reference of NICD; Lanes 7-8). Cells were harvested 48 hrs post transfection and subjected to Western blotting analysis. Myc antibody was utilized to assess the NδED and NICD tagged with Myc on their N-termini. β-Actin was utilized as the loading control.

[2] = pH 6.6, aqueous buffer, pH6.6, read-out: Solubility (μM) pH6.6

Which results are given for `Cc1cn(-c2ccc(-c3csc(Nc4cc(C(C)(C)C)nn4C)n3)cc2)cn1` [Compound 27]?
Total Aβ (Aβtotal): No Change; IC50 (Aβ42): 0.25 to 0.5 µM

With `Cc1cn(-c2ccc(-c3csc(Nc4cc(C(C)(C)C)nn4C)n3)cc2F)cn1` [Compound 28] as the molecule, how does the IC50 (Aβ42) read?
The IC50 was 0.1 to 0.25 µM.

For `COc1cc(-c2csc(Nc3cc(C(C)(C)C)nn3C)n2)ccc1-n1cnc(C)c1` [Compound 29], which IC50 (Aβ42) is on record?
Its IC50 is 0.1 to 0.25 µM.

With `Cc1cn(-c2ccc(-c3csc(Nc4cc(C(C)(C)C)nn4C)n3)cn2)cn1` [Compound 30] as the molecule, how does the IC50 (Aβ42) read?
The IC50 was greater than 0.5 µM.

For `Cc1cn(-c2ccc(-c3csc(Nc4c5c(nn4C)CCCC5)n3)cc2)cn1` [Compound 31], which “Total Aβ” value (Aβtotal) is on record?
The value was “No Change”.

And the IC50 (Aβ42)?
The IC50 was 0.1 to 0.25 µM.

For `Cc1cn(-c2ccc(-c3csc(Nc4c5c(nn4C)CCCC5)n3)cc2F)cn1` [Compound 32], which IC50 (Aβ42) is on record?
The IC50 was 0.1 to 0.25 µM.

Which IC50 (Aβ42) does the source give for `COc1cc(-c2csc(Nc3c4c(nn3C)CCCC4)n2)ccc1-n1cnc(C)c1` [Compound 33] here?
Its IC50 is 0.1 to 0.25 µM.

With `Cc1cn(-c2ccc(-c3csc(Nc4c5c(nn4C)CCCC5)n3)cn2)cn1` [Compound 34] as the molecule, how does the “Total Aβ” value (Aβtotal) read?
The value was “No Change”.

What about the IC50 (Aβ42) of the same molecule?
The IC50 was greater than 0.5 µM.

For `CCn1nc(C(C)(C)C)cc1Nc1nc(-c2ccc(-n3cnc(C)c3)cc2)cs1` [Compound 35], which IC50 (Aβ42) is on record?
Its IC50 is 0.1 to 0.25 µM.

What does the source list for `CCn1nc(C(C)(C)C)cc1Nc1nc(-c2ccc(-n3cnc(C)c3)c(F)c2)cs1` [Compound 36]?
Total Aβ (Aβtotal): No Change; IC50 (Aβ42): < 0.1 µM; EC50 (Aβ38): > 0.5 µM

What does the source list for `CCn1nc(C(C)(C)C)cc1Nc1nc(-c2ccc(-n3cnc(C)c3)c(OC)c2)cs1` [Compound 37]?
IC50 (Aβ42): < 0.1 µM; EC50 (Aβ38): 0.1 to 0.25 µM

Which IC50 (Aβ42) does the source give for `CCn1nc(C(C)(C)C)cc1Nc1nc(-c2ccc(-n3cnc(C)c3)nc2)cs1` [Compound 38] here?
Its IC50 is 0.25 to 0.5 µM.

With `CCn1nc2c(c1Nc1nc(-c3ccc(-n4cnc(C)c4)cc3)cs1)CCCC2` [Compound 39] as the molecule, how does the solubility [1, 2] read?
The solubility was 2.3 µM (≈ 0.93 µg/mL).

And the IC50 (Aβ42)?
Its IC50 is greater than 0.5 µM.

For `CCn1nc2c(c1Nc1nc(-c3ccc(-n4cnc(C)c4)c(F)c3)cs1)CCCC2` [Compound 40], which IC50 (Aβ42) is on record?
The IC50 was 0.1 to 0.25 µM.

What does the source list for `CCn1nc2c(c1Nc1nc(-c3ccc(-n4cnc(C)c4)c(OC)c3)cs1)CCCC2` [Compound 41]?
solubility [1, 2]: 7.9 µM (≈ 3.43 µg/mL); solubility ([1]; pH 7.4, aqueous buffer, pH7.4, read-out: Solubility (μM) pH7.4): 6.4 µM (≈ 2.78 µg/mL); NICD levels (NOTCH proteolysis) compared to control (NOTCH): did not change NICD levels; IC50 (Aβ42): < 0.1 µM; EC50 (Aβ38): > 0.5 µM

With `CCn1nc2c(c1Nc1nc(-c3ccc(-n4cnc(C)c4)nc3)cs1)CCCC2` [Compound 42] as the molecule, how does the IC50 (Aβ42) read?
Its IC50 is greater than 0.5 µM.

For `COc1cc(-c2csc(Nc3cc(C(C)(C)C)nn3C(C)C)n2)ccc1-n1cnc(C)c1` [Compound 43], which IC50 (Aβ42) is on record?
Its IC50 is 0.1 to 0.25 µM.

For `CCCn1nc(C(C)(C)C)cc1Nc1nc(-c2ccc(-n3cnc(C)c3)c(OC)c2)cs1` [Compound 45], which IC50 (Aβ42) is on record?
The IC50 was less than 0.1 µM.

For `Cc1cn(-c2ccc(-c3csc(Nc4cc(C(C)(C)C)nn4C(C)C)n3)cc2F)cn1` [Compound 46], which IC50 (Aβ42) is on record?
The IC50 was less than 0.1 µM.

For `CCCn1nc(C(C)(C)C)cc1Nc1nc(-c2ccc(-n3cnc(C)c3)c(F)c2)cs1` [Compound 48], which IC50 (Aβ42) is on record?
Its IC50 is less than 0.1 µM.

Which IC50 (Aβ42) does the source give for `CCn1nc2c(c1Nc1nc(-c3ccc(-n4cnc(C)c4)c(OC)n3)cs1)CCCC2` [Compound 49] here?
Its IC50 is less than 0.1 µM.

With `C[C@H](NC(=O)Cc1cc(F)cc(F)c1)C(=O)N[C@H](C(=O)OC(C)(C)C)c1ccccc1` [DAPT, reference compound] as the molecule, how does the “NICD levels (NOTCH proteolysis) compared to control” value (NOTCH) read?
The value was “decreased NICD levels”.
